We go through 28 compounds from patent publication US11236069B2, “KIF18A inhibitors” (AMGEN INC., priority 2018, dated 2022).

The term IC50 denotes the concentration that inhibits the measured activity by half.

This experiment deals with Recombinant human KIF18A (1-467 His-tagged) protein (Homo sapiens (Human), UniProt Q8NI77). Briefly: KIF18A Enzyme Assay: microtubule-stimulated ATPase activity (ADP-Glo). Conditions: read-out: KIF18A ATPase IC50; 30 nM KIF18A, 30 μg/mL pig microtubules, ATP at Km 75 μM, ADP-Glo luminescence.
Sequence of Recombinant human KIF18A (1-467 His-tagged) protein (Q8NI77 1-467): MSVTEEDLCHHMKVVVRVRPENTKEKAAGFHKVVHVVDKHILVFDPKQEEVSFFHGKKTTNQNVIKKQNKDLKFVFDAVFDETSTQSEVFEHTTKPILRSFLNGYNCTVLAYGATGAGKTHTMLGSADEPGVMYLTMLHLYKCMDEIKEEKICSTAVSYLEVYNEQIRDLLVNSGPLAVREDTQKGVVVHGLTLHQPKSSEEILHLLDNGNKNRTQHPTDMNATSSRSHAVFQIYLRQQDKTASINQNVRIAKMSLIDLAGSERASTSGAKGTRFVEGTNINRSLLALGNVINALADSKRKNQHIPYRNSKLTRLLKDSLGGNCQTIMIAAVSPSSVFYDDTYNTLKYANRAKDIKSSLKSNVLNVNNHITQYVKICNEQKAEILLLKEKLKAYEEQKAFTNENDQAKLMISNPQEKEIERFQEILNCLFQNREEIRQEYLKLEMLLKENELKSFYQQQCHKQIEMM
Sequence of Recombinant human KIF18A (1-467 His-tagged) protein (P02550 whole entry partner): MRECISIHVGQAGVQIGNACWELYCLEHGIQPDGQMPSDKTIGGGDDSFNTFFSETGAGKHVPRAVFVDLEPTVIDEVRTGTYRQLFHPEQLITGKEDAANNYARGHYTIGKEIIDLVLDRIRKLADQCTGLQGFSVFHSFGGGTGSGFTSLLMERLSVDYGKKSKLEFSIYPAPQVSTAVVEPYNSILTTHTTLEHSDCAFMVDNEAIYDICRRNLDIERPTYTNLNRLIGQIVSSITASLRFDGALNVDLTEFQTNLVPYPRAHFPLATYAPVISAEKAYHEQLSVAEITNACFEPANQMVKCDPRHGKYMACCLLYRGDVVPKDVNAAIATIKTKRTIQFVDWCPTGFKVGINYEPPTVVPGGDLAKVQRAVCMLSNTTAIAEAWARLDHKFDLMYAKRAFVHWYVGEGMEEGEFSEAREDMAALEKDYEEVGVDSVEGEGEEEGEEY
Sequence of Recombinant human KIF18A (1-467 His-tagged) protein (P02554 whole entry partner): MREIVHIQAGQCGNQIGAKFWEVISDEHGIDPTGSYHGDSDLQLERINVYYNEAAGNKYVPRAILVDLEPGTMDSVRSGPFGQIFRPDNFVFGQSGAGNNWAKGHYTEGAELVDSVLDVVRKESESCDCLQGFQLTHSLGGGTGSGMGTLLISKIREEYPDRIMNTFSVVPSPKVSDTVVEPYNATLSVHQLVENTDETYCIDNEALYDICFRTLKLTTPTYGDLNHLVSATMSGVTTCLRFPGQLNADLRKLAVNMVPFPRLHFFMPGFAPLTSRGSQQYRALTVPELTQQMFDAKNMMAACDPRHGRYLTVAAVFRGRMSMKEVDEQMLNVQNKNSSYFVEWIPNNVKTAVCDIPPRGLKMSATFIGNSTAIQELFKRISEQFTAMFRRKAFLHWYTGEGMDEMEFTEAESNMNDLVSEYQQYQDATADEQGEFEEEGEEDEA
From the text: KIF18A Enzyme Assay: Microtubule-stimulated ATPase activity assay is used to measure KIF18A enzyme activity after treatment with compound. Compounds were 2-fold serially diluted in DMSO (Sigma Inc) over 22-point concentration range. […] The assay measures ADP formed from the ATPase reaction.
On to `Cc1cc(NC(=O)c2ccc(NS(=O)(=O)CCO)cc2N2CCC3(CC2)CC3)nc(N2CC[C@H]3C[C@H]3C2)n1` [Example 11-43, N-(2-((1R,6R)-3-Azabicyclo[4.1.0]heptan-3-yl)-6-methylpyrimidin-4-yl)-4-((2-hydroxyethyl)sulfonamido)-2-(6-azaspiro[2.5]octan-6-yl)benzamide], for which the half-inhibitory concentration (IC50) was determined as 35 nM. With `C[C@@H]1CN(c2cc(NC(=O)c3ccc(NS(=O)(=O)CCO)cc3N3CCC4(CC3)CC4)ccn2)CCO1` [Example 11-65], the half-inhibitory concentration (IC50) came out at 151 nM. Consider `Cc1cc(NC(=O)c2ccc(NS(=O)(=O)C3CCC3)cc2N2CCC3(CC2)CC3)nc(N2CCC(F)(F)CC2)n1` [Example 6-11, 4-(Cyclobutanesulfonamido)-N-(2-(4,4-difluoropiperidin-1-yl)-6-methylpyrimidin-4-yl)-2-(6-azaspiro[2.5]octan-6-yl)benzamide], for which the IC50 was 127 nM. The value for `Cc1cc(NC(=O)c2ccc(NS(=O)(=O)CCO)cc2N2CCC3(CC2)CC3)nc(OCCC(F)(F)F)n1` [Example 11-61, 4-((2-Hydroxyethyl)sulfonamido)-N-(6-methyl-2-(3,3,3-trifluoropropoxy)pyrimidin-4-yl)-2-(6-azaspiro[2.5]octan-6-yl)benzamide] was 70 nM; that for `Cc1cc(NC(=O)c2ccc(S(=O)(=O)C(C)(C)C)cc2N2CCC3(CC2)CC3)nc(N2CCC(F)(F)CC2)n1` [Example 14-6, 4-(tert-Butylsulfonyl)-N-(2-(4,4-difluoropiperidin-1-yl)-6-methylpyrimidin-4-yl)-2-(6-azaspiro[2.5]octan-6-yl)benzamide] was 1880 nM; that for `Cc1cc(NC(=O)c2ccc(NS(=O)(=O)CCO)cc2N2CCC3(CC2)CC3)nc(C(C)C)n1` [Example 11-2, 4-((2-Hydroxyethyl)sulfonamido)-N-(2-isopropyl-6-methylpyrimidin-4-yl)-2-(6-azaspiro[2.5]octan-6-yl)benzamide] was 27 nM. Consider `Cc1cc(NC(=O)c2ccc(S(=O)(=O)C3CC3)cc2N2CCC3(CC2)CC3)nc(N2CCC(F)(F)CC2)n1` [Example 14-5, 4-(Cyclopropylsulfonyl)-N-(2-(4,4-difluoropiperidin-1-yl)-6-methylpyrimidin-4-yl)-2-(6-azaspiro[2.5]octan-6-yl)benzamide], for which the IC50 turned out to be 826 nM.

For `C[C@@H]1CN(c2nccc(NC(=O)c3ccc(S(=O)(=O)NC4(C)COC4)cc3N3CCC4(CC3)CC4)n2)CCO1` [Example 2-2, (R)-N-(2-(2-Methylmorpholino)pyrimidin-4-yl)-4-(N-(3-methyloxetan-3-yl)sulfamoyl)-2-(6-azaspiro[2.5]octan-6-yl)benzamide], the IC50 is 68 nM.

Regarding `Cc1cc(NC(=O)c2cc(Cl)c(NS(=O)(=O)CCO)cc2N2CCC3(CC2)CC3)nc(N2CCC(F)(F)CC2)n1` [Example 6-34, 5-Chloro-N-(2-(4,4-difluoropiperidin-1-yl)-6-methylpyrimidin-4-yl)-4-((2-hydroxyethyl)sulfonamido)-2-(6-azaspiro[2.5]octan-6-yl)benzamide], the IC50 worked out at 92.2 nM. The value for `O=C(Nc1ccnc(N2CCC(F)(F)CC2)c1)c1ccc(S(=O)(=O)NCCO)cc1N1CCC2(CC1)CC2` [Example 17, N-(2-(4,4-Difluoropiperidin-1-yl)pyridin-4-yl)-4-(N-(2-hydroxyethyl)sulfamoyl)-2-(6-azaspiro[2.5]octan-6-yl)benzamide] was 23 nM; that for `Cc1cc(NC(=O)c2ccc(NS(=O)(=O)CCO)cc2N2CCC3(CC2)CC3)nc(N2CCC23COC3)n1` [Example 11-9, 4-((2-Hydroxyethyl)sulfonamido)-N-(6-methyl-2-(6-oxa-1-azaspiro[3.3]heptan-1-yl)pyrimidin-4-yl)-2-(6-azaspiro[2.5]octan-6-yl)benzamide] was 128 nM; that for `Cc1cc(NC(=O)c2ccc(NS(=O)(=O)[C@@H](C)CO)cc2N2CCC3(CC2)CC3)nc(N2CC(F)(F)C2)n1` [Example 11-77, (S)-N-(2-(3,3-Difluoroazetidin-1-yl)-6-methylpyrimidin-4-yl)-4-((2-hydroxy-1-methylethyl)sulfonamido)-2-(6-azaspiro[2.5]octan-6-yl)benzamide] was 34 nM.

As to `Cc1cc(NC(=O)c2ccc(S(C)(=O)=O)cc2N2CCC3(CC2)CC3)nc(N[C@H](C)CO)n1` [Example 1-1, (R)-N-(2-((1-Hydroxypropan-2-yl)amino)-6-methylpyrimidin-4-yl)-4-(methylsulfonyl)-2-(6-azaspiro[2.5]octan-6-yl)benzamide], the IC50 came out at 216 nM. For `Cc1cc(NC(=O)c2ccc(NS(=O)(=O)CCO)cc2N2CCC3(CC2)CC3)nc(N2CC[C@@](C)(F)C2)n1` [Example 11-27, (R)-N-(2-(3-Fluoro-3-methylpyrrolidin-1-yl)-6-methylpyrimidin-4-yl)-4-((2-hydroxyethyl)sulfonamido)-2-(6-azaspiro[2.5]octan-6-yl)benzamide] the value was 20 nM. Turning to `O=C(Nc1ccnc(N2CCC(F)(F)CC2)n1)c1ccc(S(=O)(=O)NCCO)cc1N1CCC2(CC1)CC2` [Example 17-4, N-(2-(4,4-Difluoropiperidin-1-yl)pyrimidin-4-yl)-4-(N-(2-hydroxyethyl)sulfamoyl)-2-(6-azaspiro[2.5]octan-6-yl)benzamide], the IC50 amounted to 23 nM. For `Cc1cc(NC(=O)c2c(F)cc(NS(=O)(=O)CCO)cc2N2CCC3(CC2)CC3)nc(N2CCC(F)(F)CC2)n1` [Example 11-58, N-(2-(4,4-Difluoropiperidin-1-yl)-6-methylpyrimidin-4-yl)-2-fluoro-4-((2-hydroxyethyl)sulfonamido)-6-(6-azaspiro[2.5]octan-6-yl)benzamide] the value was 71 nM; for `Cc1cc(NC(=O)c2ccc(NS(=O)(=O)C3(C)CC3)cc2N2CCC3(CC2)CC3)nc(N2CCC(F)(F)CC2)n1` [Example 2-8, N-(2-(4,4-Difluoropiperidin-1-yl)-6-methylpyrimidin-4-yl)-4-((1-methylcyclopropan)-1-sulfonamido)-2-(6-azaspiro[2.5]octan-6-yl)benzamide], 713 nM.

In the case of `C[C@H](CO)S(=O)(=O)Nc1ccc(C(=O)Nc2ccnc(N3CCC(F)(F)CC3)n2)c(N2CCC3(CC2)CC3)c1` [Example 6-26-2, (R)-N-(2-(4,4-Difluoropiperidin-1-yl)pyrimidin-4-yl)-4-((2-hydroxy-1-methylethyl)sulfonamido)-2-(6-azaspiro[2.5]octan-6-yl)benzamide], the half-inhibitory concentration (IC50) is 21 nM. The value for `C[C@@H]1CN(c2nccc(NC(=O)c3ccc(NS(=O)(=O)C[C@@H](C)O)cc3N3CCC4(CC3)CC4)n2)CCO1` [Example 6-33-2, 4-(((R)-2-hydroxypropyl)sulfonamido)-N-(2-((R)-2-methylmorpholino)pyrimidin-4-yl)-2-(6-azaspiro[2.5]octan-6-yl)benzamide] was 86 nM; that for `Cc1cc(NC(=O)c2ccc(S(=O)(=O)NC3(C)COC3)cc2N2CCC3(CC2)CC3)nc(OCCC(F)(F)F)n1` [Example 1-6, N-(6-Methyl-2-(3,3,3-trifluoropropoxy)pyrimidin-4-yl)-4-(N-(3-methyloxetan-3-yl)sulfamoyl)-2-(6-azaspiro[2.5]octan-6-yl)benzamide] was 32 nM.

Consider `Cc1cc(NC(=O)c2ccc(NS(=O)(=O)CCO)cc2N2CCC3(CC2)CC3)nc(N2CC(C(F)(F)F)C2)n1` [Example 11-12, 4-((2-Hydroxyethyl)sulfonamido)-N-(6-methyl-2-(3-(trifluoromethyl)azetidin-1-yl)pyrimidin-4-yl)-2-(6-azaspiro[2.5]octan-6-yl)benzamide], for which the half-inhibitory concentration (IC50) was 93 nM. The value for `Cc1cc(NC(=O)c2ccc(S(=O)(=O)[C@H]3COC[C@@H]3O)cc2N2CCC3(CC2)CC3)nc(N2CCC(F)(F)CC2)n1` [Example 14-8, N-(2-(4,4-Difluoropiperidin-1-yl)-6-methylpyrimidin-4-yl)-4-(((S,4S)-4-hydroxytetrahydrofuran-3-yl)sulfonyl)-2-(6-azaspiro[2.5]octan-6-yl)benzamide] was 97 nM; that for `Cc1cc(NC(=O)c2ccc(NS(=O)(=O)CCO)cc2N2CCC3(CC2)CC3)nc(N2CC([C@H](C)O)C2)n1` [Example 11-21, (S)-N-(2-(3-(1-Hydroxyethyl)azetidin-1-yl)-6-methylpyrimidin-4-yl)-4-((2-hydroxyethyl)sulfonamido)-2-(6-azaspiro[2.5]octan-6-yl)benzamide] was 704 nM. Take `Cc1cc(NC(=O)c2ccc(NS(=O)(=O)CCO)cc2N2CCC3(CC2)CC3)nc(N2[C@H](C)COC[C@H]2C)n1` [Example 11-50, N-(2-((3R,5R)-3,5-Dimethylmorpholino)-6-methylpyrimidin-4-yl)-4-((2-hydroxyethyl)sulfonamido)-2-(6-azaspiro[2.5]octan-6-yl)benzamide]: the IC50 is 187 nM. For `Cc1cc(NC(=O)c2ccc(NS(=O)(=O)CCO)cc2N2CCC3(CC2)CC3)nc(N2CCC[C@@H](O)C2)n1` [Example 11-54, (R)-4-((2-Hydroxyethyl)sulfonamido)-N-(2-(3-hydroxypiperidin-1-yl)-6-methylpyrimidin-4-yl)-2-(6-azaspiro[2.5]octan-6-yl)benzamide] the value was 74 nM. The value for `Cc1cc(NC(=O)c2ccc(NS(=O)(=O)CCO)cc2N2CCC3(CC2)CC3)nc(N2CCC(O)CC2)n1` [Example 11-37, 4-((2-Hydroxyethyl)sulfonamido)-N-(2-(4-hydroxypiperidin-1-yl)-6-methylpyrimidin-4-yl)-2-(6-azaspiro[2.5]octan-6-yl)benzamide] was 144 nM; that for `Cc1cc(NC(=O)c2ccc(S(C)(=O)=O)cc2N2CCC3(CC2)CC3)nc(N[C@@H](C)CO)n1` [Example 1-2, (S)-N-(2-((1-Hydroxypropan-2-yl)amino)-6-methylpyrimidin-4-yl)-4-(methylsulfonyl)-2-(6-azaspiro[2.5]octan-6-yl)benzamide] was 491 nM; that for `O=C(Nc1ccnc(N2CCC(F)CC2)n1)c1ccc(NS(=O)(=O)CCO)cc1N1CCC2(CC1)CC2` [Example 11-56, N-(2-(4-Fluoropiperidin-1-yl)pyrimidin-4-yl)-4-((2-hydroxyethyl)sulfonamido)-2-(6-azaspiro[2.5]octan-6-yl)benzamide] was 22 nM.
